This is an account of results in paper PMC7617456, “Cryptosporidium lysyl-tRNA synthetase inhibitors define the interplay between solubility and permeability required to achieve efficacy” (Science translational medicine, 2024).

By solubility is commonly meant the concentration that dissolves in the medium under given conditions. Higher therefore signals much dissolved substance. What is called AC50 is the midpoint of the concentration-response curve, whichever way the signal moves. As usually defined, the fraction unbound is the share of the substance not bound to proteins or other matrix. Broadly, the pIC50 is the IC50 on a negative log10 scale, so that one unit is a factor of ten. A low value points to a large IC50. For orientation: pEC50 means −log10 of the EC50, conventionally taken in molar units.

The nature of one data set: FaSSIF solubility. The data set is classed as physicochemical. Particulars: Fasted State Simulated Intestinal Fluid.
In the next data set the test system is mitochondrial function. The experiment in a line: Functional mitochondrial toxicity assay (Seahorse XFe96). The data set is classed as cell-based.
Data set [1] can be described thus: Plasma protein binding, bovine. The data set is classed as in vitro ADME. Particulars: calf plasma, PPB assay, read-out: fraction unbound (fu).
Data set [2] concerns transgenic C. parvum that express NanoLuciferase. The experiment in a line: IFN-Gamma KO mouse acute efficacy model. The data set is classed as in vivo. Particulars: DDD489, DDD508 50 mg/kg BID; DDD706 20 mg/kg QD; oral 7 days from day 6 PI. The method, then: First, compounds were tested in the acute cryptosporidiosis mouse model, IFN-Gamma KO.([16]) In this model, infection peaks at approximately 10-12 days PI, and resolves within a month. Mice were infected with a strain of transgenic C. parvum that expresses NanoLuciferase (NLuc).([12]) Mice were treated orally for 7 days starting on day 6 PI (Fig. 4A) and a NanoLuciferase assay was used to determine parasite shedding in feces (RLUs/g). Control mice received either vehicle (Fig. 4B, white) or positive control, DDD706 (Fig. 4B, black; NLuc parasites are genetically engineered to be resistant to paromomycin, so DDD706 serves as the positive control) at 20 mg/kg QD; DDD489 and DDD508 were tested at 50 mg/kg BID.
Male IFN-Gamma knockout mice (B6.129S7-Ifng^tmlTS/J, JAX 002287; purchased from Jackson Labs and bred at the University of Dundee) aged 30 weeks old were used, (n = 5 mice per experimental group). Mice were infected by oral gavage (100 oocysts of Δtk::mNeon-Neo^R as described previously([12])). Compounds were prepared in HMPC without DMSO and administered by oral gavage at 50 mg/kg starting day 6 PI. Early lead compound DDD706 served as the positive control (administered at 20 mg/kg QD). Fecal samples were pooled from all mice in the cage on days indicated. Oocyst shedding in feces was determined by NanoLuciferase assay (20 mg of fecal material was homogenized in 1 ml of lysis buffer and assayed for NLuc activity as previously described).([12])

In another data set the target is CYP450 3A4 (Homo sapiens, UniProt P08684). The experiment in a line: CYP450 inhibition 3A4. The data set is classed as in vitro ADME. The method, then: (§1) CYP450 inhibition (Dundee)
(§2) As previously described.(31)
(§3) DDD489 and DDD508 were evaluated for their ability to induce reverse mutations both in the presence and absence of S9 mix at the histidine locus in the genome of four strains of Salmonella typhimurium (TA98, TA100, TA1535, and TA97a) and at the tryptophan locus in the genome of Escherichia coli WP2 uvrA in a mini-Ames study conducted at WuXi App Tec […]
(§4) hERG inhibition (WuXi App Tec)
(§5) DDD489 and DDD508 were evaluated for their effects on cloned hERG potassium channels stably expressed in Chinese Hamster Ovary (CHO) cells using manual patch-clamp technique in a hERG inhibition assay conducted at WuXi App Tec (Suzhou).
(§6) Mitochondrial toxicity (Cyprotex)
(§7) DDD489 and DDD508 were evaluated for their effects on mitochondrial function in a functional mitochondrial toxicity assay using Seahorse XFe96 flux analyser conducted at […]
(§8) 44 screen safety panel (Eurofins)
(§9) DDD489 was evaluated for off-target effects in a SafetyScreen44 panel at Eurofins Cerep.
(§10) All regulated procedures, at the University of Dundee, on living animals were carried out under the authority of a project license issued by the Home Office under the Animals (Scientific Procedures) Act 1986, as amended in 2012 (and in compliance with EU Directive EU/2010/63). […]

A further data set addresses CYP450 2D6 (Homo sapiens, UniProt P10635). The experiment in a line: CYP450 inhibition 2D6. The data set is classed as in vitro ADME. The method, then:
as §1, §2, §3, §4, §5, §6, §7, §8, §9, §10

In data set [3] the test system is Salmonella typhimurium (TA98, TA100, TA1535, and TA97a) and Escherichia coli WP2 uvrA. Nature of the data set: Mini-Ames. The data set is classed as cell-based. Particulars: presence and absence of S9 mix.
The test system of a further data set is wild type C. parvum. Nature of the data set: NOD SCID Gamma mouse efficacy model. The data set is classed as in vivo. Particulars: for parasite shedding once treatment finished (day 14 PI) / recrudescence (day 21 PI): 10 mg/kg BID oral 7 days; for log reduction in parasite shedding / parasite reduction: 10 mg/kg twice a day oral 7 days; for minimum efficacious dose (MED): BID oral 7 days, reduces parasite burden and prevents recrudescence. The method, then: An immunocompromised mouse model of cryptosporidiosis (Fig. 1C) was selected to examine the effect of each of the fourteen tool compounds on parasite reduction in vivo. […] Treatment started on day 7 post infection (PI) and concluded on day 13 PI. Infection was determined by measuring the number of parasites shed in the fecal material by quantitative PCR (oocysts/g). Efficacy was determined by calculating the log reduction in the number of oocysts shed by treated animals after completion of compound dosing (day 14) relative to the initial parasite burden in the same group of animals before treatment began (day 7 PI). Hypothesized compound absorption by BCS class is illustrated in Fig. S3. […] No Class I or Class IV compound achieved a log reduction above 2.0 (99% parasite reduction).
Efficacy of tool compounds in the NOD SCID Gamma mouse model was assessed as previously described.([14]) Male mice aged 3-5 weeks old were used, 4 mice per group (NOD.Cg-Prkdc^scid Il2rgtm1Wjl/SzJ; purchased from Jackson Labs). Mice were infected via gavage (100,000 wild type Iowa strain C. parvum oocysts from Bunchgrass Farms). Compounds were prepared fresh daily in HPMC with DMSO (0.5% hydroxypropylmethylcellulose, 0.4% Tween 80 and 0.5% Benzyl alcohol (v/v) plus 5% DMSO) and were administered by oral gavage at the concentration indicated starting 7 days post infection. Paromomycin served as the positive control (administered at 2000 mg/kg). Fecal samples were collected on days indicated. Oocyst shedding in feces was measured using a previously validated qPCR assay.([28])

In the next data set the target is CpKRS (Cryptosporidium parvum, UniProt Q5CR27). The experiment in a line: CpKRS in vitro enzyme assay.
The next data set concerns KRS-A309L. Nature of the data set: Transgenic C. parvum NanoLuciferase drug sensitivity assay, KRS-A309L. The data set is classed as cell-based. The note with it: Cryptosporidium parvum, HCT-8, 48 h, read-out: EC50, KRS-A309L.
The mark [4] stands for this setting: read-out: Oxygen consumption AC50.

pEC50, pIC50: −log10 of the molar value. Values after ≈ are worked out from the molar mass of the structure shown. “Also recorded” adds a separate entry of the source. Like-named read-outs stand apart in the source and are kept apart here.

Sequence of CpKRS (Q5CR27 entry or part of it): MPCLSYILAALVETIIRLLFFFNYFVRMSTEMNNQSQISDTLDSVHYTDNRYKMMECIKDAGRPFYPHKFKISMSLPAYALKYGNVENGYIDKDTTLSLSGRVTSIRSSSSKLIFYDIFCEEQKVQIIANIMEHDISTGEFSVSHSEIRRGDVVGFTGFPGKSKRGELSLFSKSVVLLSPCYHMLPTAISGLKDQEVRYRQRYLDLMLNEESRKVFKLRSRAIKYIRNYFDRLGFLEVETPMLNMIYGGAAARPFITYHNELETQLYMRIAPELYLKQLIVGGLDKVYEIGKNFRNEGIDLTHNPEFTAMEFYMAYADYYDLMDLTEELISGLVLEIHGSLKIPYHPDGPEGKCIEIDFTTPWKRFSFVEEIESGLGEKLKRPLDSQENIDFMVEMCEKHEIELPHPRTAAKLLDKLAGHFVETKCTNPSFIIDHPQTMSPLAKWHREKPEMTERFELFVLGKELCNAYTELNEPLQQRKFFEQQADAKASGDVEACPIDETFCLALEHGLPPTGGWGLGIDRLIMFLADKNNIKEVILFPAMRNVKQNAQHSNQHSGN
Sequence of CYP450 3A4 (P08684 whole entry): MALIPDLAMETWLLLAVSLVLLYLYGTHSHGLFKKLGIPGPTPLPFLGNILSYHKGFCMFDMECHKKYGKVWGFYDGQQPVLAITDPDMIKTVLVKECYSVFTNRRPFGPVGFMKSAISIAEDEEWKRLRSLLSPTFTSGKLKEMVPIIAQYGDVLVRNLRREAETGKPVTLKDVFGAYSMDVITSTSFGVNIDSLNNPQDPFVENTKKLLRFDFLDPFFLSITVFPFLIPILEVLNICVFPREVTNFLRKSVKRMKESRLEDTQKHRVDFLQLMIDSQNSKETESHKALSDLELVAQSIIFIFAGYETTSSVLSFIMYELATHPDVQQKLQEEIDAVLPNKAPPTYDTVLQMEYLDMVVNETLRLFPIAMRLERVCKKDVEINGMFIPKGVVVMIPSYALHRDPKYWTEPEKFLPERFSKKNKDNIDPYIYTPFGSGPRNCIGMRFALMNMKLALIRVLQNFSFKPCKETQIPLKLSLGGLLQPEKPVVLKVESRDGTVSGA
Sequence of CYP450 2D6 (P10635 whole entry): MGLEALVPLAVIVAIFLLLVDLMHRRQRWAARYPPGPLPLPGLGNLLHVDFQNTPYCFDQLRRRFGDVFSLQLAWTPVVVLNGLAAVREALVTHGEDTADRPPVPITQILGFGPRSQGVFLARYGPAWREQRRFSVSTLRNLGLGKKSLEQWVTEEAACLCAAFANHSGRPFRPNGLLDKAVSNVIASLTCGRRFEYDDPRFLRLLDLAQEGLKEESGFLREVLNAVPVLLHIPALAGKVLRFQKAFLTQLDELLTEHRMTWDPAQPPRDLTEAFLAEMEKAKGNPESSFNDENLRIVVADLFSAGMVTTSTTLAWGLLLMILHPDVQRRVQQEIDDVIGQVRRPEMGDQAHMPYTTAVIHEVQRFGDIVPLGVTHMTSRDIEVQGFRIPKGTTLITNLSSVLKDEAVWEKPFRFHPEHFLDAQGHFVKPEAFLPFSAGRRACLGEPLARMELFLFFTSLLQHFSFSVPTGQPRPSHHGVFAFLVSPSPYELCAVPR
Description for CpKRS: CpKRS in vitro enzyme assay (Dundee)
Potency of compounds was determined in 10-point dose-response inhibition curves.
Echo 550 acoustic dispenser (Labcyte). KRS reactions were started by adding enzyme into wells containing substrate and compounds using a Thermo Scientiﬁ c Matrix Wellmate. KRS assays were run in 50 µL reactions (Final concentration: 100 mM HEPES*K pH 7.4, 20 mM
Pyrophosphatase) at room temperature for 7 h. Reactions were stopped by the addition of Biomol green (50 µL: Enzo Life Sciences) with the amount of free phosphate detected by
Samples were all run in duplicate and data was processed and analyzed using ActivityBase

With `Nc1nc2c(c(C(F)(F)F)n1)C(=O)N(CC1CCCC(C(F)(F)F)C1)C2` (centres unmarked) [DDD489], in the data set “FaSSIF solubility”, the solubility was 48 µM (≈ 18.4 µg/mL). In the data set on mitochondrial function, the “Extracellular acidification rate AC50” value was “No response” and the “Reserve capacity AC50” value is “No response”. Also, in the data set with mitochondrial function (setting [4]), the AC50 was above 100 µM. Also, the unbound share (fraction unbound) in [1] was found to be 0.26. Moreover, in data set [2], the “parasite shedding during treatment period” value is “reduced parasite shedding below the LOQ” and the recrudescence result was “able to prevent parasite recrudescence”. This compound also showed a pIC50 against CYP450 3A4 below 4.00. This compound also had a pIC50 on CYP450 2D6 of 5.10. In data set [3], the “Mini-Ames (4 strains ± S9)” value is “Negative”. Besides, in the data set on wild type C. parvum, the “parasite shedding once treatment finished (day 14 PI)” value is listed as “reduces parasite shedding to the level of detection”, the “recrudescence (day 21 PI)” value was “unable to prevent recrudescence; also recorded: does not prevent recrudescence”, the “log reduction in parasite shedding” value is above 2.8 log and the parasite reduction is above 99.8%. The “minimum efficacious dose (MED)” value in the data set on wild type C. parvum was 30 mg/kg. The “recrudescence at day 21 PI” value in the data set on wild type C. parvum (50 mg/kg BID oral 7 days) is listed as “prevents”. For the same compound, the pIC50 against CpKRS was 6.07. Moreover, the pEC50 in the data set on KRS-A309L is 5.06.

In turn, `O=C(NCC1(O)CCCCC1)c1cc(=O)c2cc(O)ccc2o1` [DDD508] returned a solubility in “FaSSIF solubility” of 325 µM (≈ 103 µg/mL). In addition, the “Extracellular acidification rate AC50” value in the data set on mitochondrial function is “No response”. In addition, the AC50 in the data set with mitochondrial function (setting [4]) was above 100 µM. The half-maximal activity concentration (AC50) with mitochondrial function (read-out: Reserve capacity AC50) is above 100 µM. For the same compound, the fraction unbound in data set [1] was 0.53. Moreover, in data set [2], the “parasite shedding during treatment period” value was “reduced parasite shedding below the limit of quantitation (LOQ)” and the recrudescence entry is “unable to prevent recrudescence”. Besides, the negative-log IC50 (pIC50) against CYP450 3A4 is below 4.00. Besides, the pIC50 against CYP450 2D6 was below 4.00. For the same compound, the “Mini-Ames (4 strains ± S9)” value in [3] is recorded as “Negative”. Further, in the data set with wild type C. parvum, the “parasite shedding once treatment finished (day 14 PI)” value was “parasite shedding to the level of detection”, the “recrudescence (day 21 PI)” value is listed as “unable to prevent recrudescence”, the “log reduction in parasite shedding” value was above 2.8 log and the parasite reduction was above 99.8%. Moreover, the “minimum efficacious dose (MED)” value with wild type C. parvum came out at 30 mg/kg. On CpKRS, this compound gave a pIC50 of 5.77. In addition, the pEC50 in the data set with KRS-A309L was 5.00.
